Measurements reported in ChEMBL document CHEMBL1131502, “Thiol-induced nitric oxide release from 3-halogeno-3,4-dihydrodiazete 1,2-dioxides” (J Med Chem, 1998).

What was measured:
Homo sapiens = species on record: Homo sapiens; test: The compound was tested for half-maximum inhibition of platelet aggregation; assay type: functional
[1] = The compound was tested for the concentration to reduce the viability of bovine aortic endothelial cell by 50% within 24 hr after compound addition.; assay type: functional, cell-based; conditions: Bos taurus
[2] = apparent rate constant value of the compound; assay type: ADME

Row | Structure (SMILES) | IC50 (Homo sapiens) [µM] | IC50 [1] [µM] | rate constant app [2] [M⁻¹ s⁻¹]
1 | CC12CCCCC1(Br)[N+]([O-])=[N+]2[O-] (stereo not drawn) | 1 | 230 | 0.072
2 | CC1(C)[N+]([O-])=[N+]([O-])C1(C)Br (stereo not drawn) | 10 | 1400 | 0.052
3 | CC12CCCCC1(Cl)[N+]([O-])=[N+]2[O-] (stereo not drawn) | – | > 6000 | 0.0033
